In ChEMBL document CHEMBL5532694, “PDE-stable 2'3'-cGAMP analogues, containing 5'-S-phosphorothioester linkage, as STING agonists” (RSC Med Chem, 2024):

Key:
[1] = molecular target: T1, Stimulator of interferon genes protein (Homo sapiens, UniProt Q86WV6); assay: Agonist activity at STING in human THP1-Dual KI-hSTING-R232 cells assessed as IRF activation incubated for 24 hrs by QUANTI-Luc reagent based luminescence assay; assay type: cell-based
[2] = molecular target: T1, Stimulator of interferon genes protein; assay: Agonist activity at STING in wildtype human THP1-Dual cells assessed as IRF activation incubated for 24 hrs by QUANTI-Luc reagent based luminescence assay; assay type: cell-based
[3] = molecular target: T1, Stimulator of interferon genes protein
Description: Binding affinity to wildtype human STING expressed in Escherichia coli BL21 (DE3) assessed as thermal stability by measuring increase in melting temperature by differential scanning fluorimetry analysis

[4] = molecular target: T1, Stimulator of interferon genes protein; assay: Displacement of 2'-Fluo-AHC-c-di-GMP from wildtype human STING expressed in Escherichia coli BL21 (DE3) incubated for 5 mins by fluorescence polarization assay
[5] = Stability of compound at 95 degreeC incubated for 5 mins by HPLC analysis; assay type: physicochemical
[6] = molecular target: T2, Ectonucleotide pyrophosphatase/phosphodiesterase family member 1 (Homo sapiens, UniProt P22413); assay: Stability of compound assessed as ENPP1 (unknown origin) mediated compound degradation at 300 uM measured upto 24 hrs by HPLC analysis; assay type: ADME
T2 sequence (P22413 whole entry): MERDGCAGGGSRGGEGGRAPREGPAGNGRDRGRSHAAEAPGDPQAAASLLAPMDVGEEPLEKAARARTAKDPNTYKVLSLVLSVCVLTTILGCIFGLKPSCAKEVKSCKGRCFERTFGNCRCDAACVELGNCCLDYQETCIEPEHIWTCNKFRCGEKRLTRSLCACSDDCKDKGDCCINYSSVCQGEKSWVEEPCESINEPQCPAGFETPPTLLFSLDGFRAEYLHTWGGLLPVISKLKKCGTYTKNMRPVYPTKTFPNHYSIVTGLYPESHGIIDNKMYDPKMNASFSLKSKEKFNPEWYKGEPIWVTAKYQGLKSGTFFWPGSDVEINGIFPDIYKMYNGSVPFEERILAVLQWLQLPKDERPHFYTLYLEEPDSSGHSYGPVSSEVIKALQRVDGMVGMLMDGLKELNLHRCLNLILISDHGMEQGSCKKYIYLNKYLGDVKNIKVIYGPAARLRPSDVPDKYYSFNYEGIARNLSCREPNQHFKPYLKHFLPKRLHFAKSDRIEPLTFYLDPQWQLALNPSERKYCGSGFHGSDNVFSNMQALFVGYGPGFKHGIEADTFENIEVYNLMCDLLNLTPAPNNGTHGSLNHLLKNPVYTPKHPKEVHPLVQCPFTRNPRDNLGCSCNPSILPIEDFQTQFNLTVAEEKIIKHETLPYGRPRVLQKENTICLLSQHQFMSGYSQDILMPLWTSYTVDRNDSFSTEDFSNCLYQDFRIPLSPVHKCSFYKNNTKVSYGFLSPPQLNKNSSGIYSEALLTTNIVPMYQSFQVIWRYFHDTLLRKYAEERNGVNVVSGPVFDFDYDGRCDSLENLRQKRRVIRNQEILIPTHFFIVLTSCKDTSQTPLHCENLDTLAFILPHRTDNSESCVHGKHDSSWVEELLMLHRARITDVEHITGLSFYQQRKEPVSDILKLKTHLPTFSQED

[7] = Stability of compound assessed as Poxin (unknown origin) mediated compound degradation at 300 uM and measured after 3 hrs by HPLC analysis; assay type: ADME
[8] = Stability of compound assessed as Poxin (unknown origin) mediated compound degradation at 300 uM and measured after 24 hrs by HPLC analysis; assay type: ADME
[9] = Stability of compound assessed as Poxin (unknown origin) mediated compound degradation at 300 uM and measured after 30 mins by HPLC analysis; assay type: ADME; conditions: 0.5 h

T1 sequence (Q86WV6 whole entry): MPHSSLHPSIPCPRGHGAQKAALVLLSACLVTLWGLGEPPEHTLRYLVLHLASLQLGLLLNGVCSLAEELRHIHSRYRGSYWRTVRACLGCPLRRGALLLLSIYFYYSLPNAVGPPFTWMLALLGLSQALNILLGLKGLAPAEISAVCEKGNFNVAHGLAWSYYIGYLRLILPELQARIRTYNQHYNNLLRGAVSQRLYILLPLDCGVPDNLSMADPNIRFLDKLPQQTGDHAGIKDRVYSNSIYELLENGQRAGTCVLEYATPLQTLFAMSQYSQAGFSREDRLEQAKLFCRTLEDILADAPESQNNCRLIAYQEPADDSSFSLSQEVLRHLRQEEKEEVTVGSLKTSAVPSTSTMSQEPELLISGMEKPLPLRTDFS

CCN(CC)CC.CCN(CC)CC.Nc1nc2c(ncn2[C@@H]2O[C@@H]3COP(=O)(O)O[C@H]4[C@@H](O)[C@H](n5cnc6c(N)ncnc65)O[C@@H]4CSP(=O)(O)O[C@@H]2[C@@H]3O)c(=O)[nH]1
EC50 [1]: 27.4 µM | EC50 [2]: 27.2 µM | ΔTm [3]: 8.2 °C | IC50 [4]: 18.6 µM | Stability [5]: Stable | Stability [6]: Stable | Stability [7]: Unstable

CCN(CC)CC.CCN(CC)CC.Nc1nc2c(ncn2[C@@H]2O[C@@H]3COP(=O)(O)O[C@H]4[C@@H](F)[C@H](n5cnc6c(N)ncnc65)O[C@@H]4CSP(=O)(O)O[C@@H]2[C@@H]3O)c(=O)[nH]1
Stability [8]: Stable | Stability [5]: Stable | Stability [6]: Stable

Nc1nc2c(ncn2[C@@H]2O[C@@H]3COP(=O)(O)O[C@H]4[C@@H](O)[C@H](n5cnc6c(N)ncnc65)O[C@@H]4COP(=O)(O)O[C@@H]2[C@@H]3O)c(=O)[nH]1
Stability [9]: Unstable | Stability [5]: Stable | Stability [6]: Unstable

Nc1nc2c(ncn2[C@@H]2O[C@@H]3COP(=O)(O)O[C@H]4C[C@H](n5cnc6c(N)ncnc65)O[C@@H]4CSP(=O)(O)O[C@@H]2[C@@H]3O)c(=O)[nH]1
EC50 [1]: 16.4 µM | EC50 [2]: 37 µM | IC50 [4]: 7.87 µM
